Laboratory results: patent US20230339991A1, “HYPOXIA-ACTIVATED DNA ALKYLATING AGENT AND MEDICAL USE THEREOF” (ASCENTAWITS PHARMACEUTICALS, LTD., priority 2020, published 2023)
Where “and” joins values, the source holds several entries; their conditions need not be identical. Identical values can stand only once. Like-named read-outs stand apart in the source and are kept apart here.

Columns and labels:
[1] = Blood-brain barrier experiment, brain and plasma concentrations after IV dosing; type: in vivo, CD-1 mice; details: for half-life: read-out: T½ (converted)
Protocol: Three CD-1 […] were administered 1 mg/kg of the test compound intravenously at each time point. Blood and brain tissue were collected at 5 min, 15 min, 1 h, 2 h, 4 h and 8 h after administration.

[2] = Plasma stability, monkey; type: in vitro ADME; details: Monkey plasma; after 30 minutes
Protocol: (§1) The pH of the plasma was checked and recorded. Note: a.
(§2) The final concentration of solvent was 0.5%.
(§3) The assay is performed in duplicate.

[3] = Plasma stability, human; type: in vitro ADME
Protocol: as §1, §2, §3

[4] = CD-1, mouse, plasma, IV 1 mg/kg
[5] = IV 1 mg/kg, 0.083 h, single animals, 1 mg/kg
[6] = IV 1 mg/kg, 0.25 h, single animals, 1 mg/kg
[7] = IV 1 mg/kg, 1 h, single animals, 1 mg/kg
[8] = IV 1 mg/kg, 2 h, single animals, 1 mg/kg
[9] = IV 1 mg/kg, 4 h, single animals, 1 mg/kg
[10] = IV 1 mg/kg, 8 h, single animals

`O=[N+]([O-])c1ccc([C@H](OP(=O)(N2CC2)N2CC2)C(F)(F)F)c2ccccc12` [Compound B] showed a concentration at 0.083 h ([1]; CD-1, mouse, brain, iv, 1 mg/kg, IV 1 mg/kg, 0.083 h, single animals, read-out: Brain concentration) of 992 ng/g, a concentration at 0.25 h ([1]; CD-1, mouse, brain, iv, 1 mg/kg, IV 1 mg/kg, 0.25 h, single animals, read-out: Brain concentration) of 499 ng/g and a concentration at 1 h ([1]; CD-1, mouse, brain, iv, 1 mg/kg, IV 1 mg/kg, 1 h, single animals, read-out: Brain concentration) of 88.1 ng/g. The concentration at 2 h ([1]; CD-1, mouse, brain, iv, 1 mg/kg, IV 1 mg/kg, 2 h, single animals, read-out: Brain concentration) was 9 ng/g, the concentration at 4 h ([1]; CD-1, mouse, brain, iv, 1 mg/kg, IV 1 mg/kg, 4 h, single animals) was 1.34 ng/g and the Kp at 0.083 h ([1]; CD-1, mouse, brain/plasma, iv, 1 mg/kg, IV 1 mg/kg, 0.083 h, read-out: Mean Ratio (Brain/Plasma)) was 2.25. The Kp at 0.083 h ([1]; CD-1, mouse, brain/plasma, iv, 1 mg/kg, IV 1 mg/kg, 0.083 h, single animals, read-out: Ratio (Brain/Plasma)) was 2.18, the Kp at 0.25 h ([1]; CD-1, mouse, brain/plasma, iv, 1 mg/kg, IV 1 mg/kg, 0.25 h, single animals, read-out: Ratio (Brain/Plasma)) was 1.47 and the Kp at 1 h ([1]; CD-1, mouse, brain/plasma, iv, 1 mg/kg, IV 1 mg/kg, 1 h, read-out: Mean Ratio (Brain/Plasma)) was 1.39. It also gave a Kp at 1 h ([1]; CD-1, mouse, brain/plasma, iv, 1 mg/kg, IV 1 mg/kg, 1 h, single animals, read-out: Ratio (Brain/Plasma)) of 1.26, a Kp at 2 h ([1]; CD-1, mouse, brain/plasma, iv, 1 mg/kg, IV 1 mg/kg, 2 h, read-out: Mean Ratio (Brain/Plasma)) of 1.34 and a Kp at 4 h ([1]; CD-1, mouse, brain/plasma, iv, 1 mg/kg, IV 1 mg/kg, 4 h, single animals, read-out: Ratio (Brain/Plasma)) of 1.19. It also gave a Kp ([1]; CD-1, mouse, brain/plasma, iv, 1 mg/kg, IV 1 mg/kg, read-out: AUClnf Ratio (Brain/Plasma)) of 1.49, a concentration at 0.083 h ([1]; CD-1, mouse, plasma, iv, 1 mg/kg, IV 1 mg/kg, 0.083 h, single animals, read-out: Plasma concentration) of 454 ng/mL and a concentration at 0.25 h ([1]; CD-1, mouse, plasma, iv, 1 mg/kg, IV 1 mg/kg, 0.25 h, single animals, read-out: Plasma concentration) of 341 ng/mL. It also gave a concentration at 1 h ([1]; CD-1, mouse, plasma, iv, 1 mg/kg, IV 1 mg/kg, 1 h, single animals, read-out: Plasma concentration) of 70 ng/mL, a concentration at 2 h ([1]; CD-1, mouse, plasma, iv, 1 mg/kg, IV 1 mg/kg, 2 h, single animals, read-out: Plasma concentration) of 8.54 ng/mL and a half-life ([1]; CD-1, mouse, brain tissue, IV 1 mg/kg) of 19.8 min. It also gave an AUC(0-t) [1, 4] of 289 ng·h/mL, a C0 [1, 4] of 532 ng/mL and a half-life [1, 4] of 27 min. For the same compound, the Brain concentration [1, 5] was 1038.97 ng/g and 916.57 ng/g, the Plasma concentration [1, 5] was 485.00 ng/mL and 393.31 ng/mL and the “Ratio (Brain/Plasma)” value [1, 5] was 2.23 and 2.33. For the same compound, the Brain concentration [1, 6] was 480.24 ng/g and 420.87 ng/g, the Plasma concentration [1, 6] was 289.25 ng/mL and 256.49 ng/mL and the “Ratio (Brain/Plasma)” value [1, 6] was 1.66 and 1.64. For the same compound, the Brain concentration [1, 7] was 104.66 ng/g and 103.20 ng/g, the Plasma concentration [1, 7] was 87.46 ng/mL and 75.23 ng/mL and the “Ratio (Brain/Plasma)” value [1, 7] was 1.55 and 1.37. The Brain concentration [1, 8] was 13.14 ng/g and 15.08 ng/g, the Plasma concentration [1, 8] was 9.83 ng/mL and 11.45 ng/mL and the “Ratio (Brain/Plasma)” value [1, 8] was 1.32. For the same compound, the Brain concentration [1, 9] was “BLOQ”, the Plasma concentration [1, 9] was 1.13 ng/mL and 0.52 ng/mL and 0.28 ng/mL and the Brain concentration [1, 10] was “BLOQ”. For the same compound, the Plasma concentration [1, 10] was “BLOQ”, the AUClast ([1]; brain tissue, IV 1 mg/kg) was 429.34 ng·h/g and the AUClnf ([1]; brain tissue, IV 1 mg/kg) was 435.32 ng·h/g. For the same compound, the MRTlnf_obs ([1]; brain tissue, IV 1 mg/kg) was 24.6 min, the blood-brain barrier penetration ([1]; detected in brain tissue) was “can penetrate the blood-brain barrier” and the Cl_obs ([1]; plasma, IV 1 mg/kg) was 57.63 mL/min/kg. It also gave an MRTlnf_obs ([1]; plasma, IV 1 mg/kg) of 27.6 min and a Vss_obs ([1]; plasma, IV 1 mg/kg) of 1.59 L/kg.

In the case of `CC(OP(=O)(N1CC1)N1CC1)c1ccc([N+](=O)[O-])c2ccccc12` (centres unmarked) [Compound D], the Remaining percentage [2] is reported as 87.66%, the Remaining percentage ([3]; Human plasma, after 30 minutes, 5 μM, 37° C.) is reported as 97.06% and the “plasma stability” value ([3]; human plasma) is reported as “secondarily”.
